Reference: patent US5059627A, “Nerve growth factor secretion inducing composition” (Takeda Chemical Industries, Ltd., priority 1989, dated 1991)

Tests used:
in vivo = conditions: mouse, po
mice = conditions: po, groups of 10

Row | SMILES | LD50 (in vivo) [mg/kg] | LD50 (mice) [mg/kg]
1 | Cc1cc(O)c(C)c(C)c1O [2,3,5-Trimethyl-1,4-hydroquinone, 2,3,5-trimethyl-1,4-hydroquinone] | > 500 | –
2 | CC1=CC(=O)c2ccccc2C1=O [Vitamin K0, vitamin K0] | – | 500
3 | COc1c(O)c(C)c(CCCCCCCCCCO)c(O)c1OC [6-(10-hydroxydecyl)-2,3-dimethoxy-5-methyl-1,4-hydroquinone] | > 1000 | –
4 | COC1=C(OC)C(=O)C(C/C=C(\C)CCC=C(C)C)=C(C)C1=O [Ubiquinone-2, ubiquinone-2] | > 500 | –
